Tests used:
pathogenic bacteria = details: general statement on antibacterial properties; cited from earlier work
Staphylococcus aureus = assay: Time needed to meet disinfection requirements, Staphylococcus aureus; type: cell-based; details: concentration: ethanol 70%, benzalkonium bromide 1:1000, 1210 250 ppm, Embodiment 11 stock
[1] = tested on: Mycobacterium tuberculosis; details: concentration: ethanol 70%
Escherichia coli = assay: Time needed to meet disinfection requirements, Escherichia coli; type: cell-based; details: concentration: ethanol 70%, benzalkonium bromide 1:1000, 1210 250 ppm, Embodiment 11 stock
Candida albicans = assay: Time needed to meet disinfection requirements, Candida albicans; type: cell-based; details: concentration: ethanol 70%, iodophor 40 mg/L, Embodiment 11 stock
Pseudomonas auerginosa = assay: Time needed to meet disinfection requirements, Pseudomonas aeruginosa; type: cell-based; details: concentration: ethanol 70%, 1210 500 ppm, Embodiment 11 stock

Row | Compound | bactericidal concentration (pathogenic bacteria) [mol/L] | Time needed for meeting disinfection requirements (Staphylococcus aureus) [min] | Time needed for meeting disinfection requirements [1] [min] | Time needed for meeting disinfection requirements (Escherichia coli) | Time needed for meeting disinfection requirements (Candida albicans) [min] | Time needed for meeting disinfection requirements (Pseudomonas auerginosa) [min]
1 | O=C(O)CCCCCCCC(=O)O [Azelaic acid, azelaic acid] | 1 | – | – | – | – | –
2 | CCO [Ethanol] | – | 5 | 5 | 0.5. min | 1 | 1
3 | Benzalkonium bromide | – | 5 | – | 10 min | – | –
